From patent US20240226034A1, “Use of Terpenoids and Salicylates as Anesthetics and Analgesics” (THE REGENTS OF THE UNIVERSITY OF CALIFORNIA, priority 2021, published 2024)
Where “and” joins values, the source holds several entries; their conditions need not be identical. Equal entries are not always repeated. Entries after “also recorded” stand apart in the source; their conditions may differ.

How the values were obtained:
carp = conditions: immersion; cited from earlier work
[1] = cited from earlier work
[2] = target: T1, GABAA receptors (human α1 GABRA1 and rat β2 GABRB2 subunits) (UniProt P14867+P63138); assay: Two-electrode voltage clamp of GABAA receptors expressed in Xenopus oocytes; format: cell-based; conditions: for effect on GABAA receptor currents: dose-response, oocytes
T1 construct: expressed in transfected cells; host or cells: Xenopus laevis oocytes (intranuclear DNA injection)
T1 sequence (P14867 28-456): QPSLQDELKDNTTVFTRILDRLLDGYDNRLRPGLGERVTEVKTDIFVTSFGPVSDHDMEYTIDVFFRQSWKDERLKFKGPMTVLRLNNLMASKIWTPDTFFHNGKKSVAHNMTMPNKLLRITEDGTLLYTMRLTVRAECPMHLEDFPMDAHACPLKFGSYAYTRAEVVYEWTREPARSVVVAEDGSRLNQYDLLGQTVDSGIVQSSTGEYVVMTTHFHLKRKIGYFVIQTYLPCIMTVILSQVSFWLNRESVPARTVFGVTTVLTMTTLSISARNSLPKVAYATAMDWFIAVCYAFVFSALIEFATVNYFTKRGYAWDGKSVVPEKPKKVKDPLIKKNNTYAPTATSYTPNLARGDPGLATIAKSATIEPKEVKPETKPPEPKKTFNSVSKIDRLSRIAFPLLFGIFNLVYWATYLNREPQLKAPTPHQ
T1 sequence (P63138 25-474 limits assumed): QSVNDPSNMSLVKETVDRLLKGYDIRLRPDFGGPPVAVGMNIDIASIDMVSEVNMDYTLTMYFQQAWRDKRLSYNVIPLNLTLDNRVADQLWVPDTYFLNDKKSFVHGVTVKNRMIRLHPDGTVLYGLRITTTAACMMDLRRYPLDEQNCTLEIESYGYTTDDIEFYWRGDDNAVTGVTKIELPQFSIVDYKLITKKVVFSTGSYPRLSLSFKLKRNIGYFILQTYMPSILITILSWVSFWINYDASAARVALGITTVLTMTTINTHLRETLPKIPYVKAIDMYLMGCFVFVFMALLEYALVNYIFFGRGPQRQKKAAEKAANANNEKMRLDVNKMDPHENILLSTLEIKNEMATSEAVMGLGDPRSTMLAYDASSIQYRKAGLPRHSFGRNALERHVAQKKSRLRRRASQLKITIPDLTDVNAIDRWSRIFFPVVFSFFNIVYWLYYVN
Description: Ovaries removed from sexually mature Xenopus laevis frogs were bluntly dissected to remove surrounding connective tissue and then digested with 0.2% type I collagenase in an oocyte Ringer's solution. Once free from thecal cells and connective tissue, individual oocytes were rinsed, sorted, and stored in a modified Barth's solution (R. Brosnan et al., […]. 103, (2006): 86; L. Yang, P. S. Milutinovic, […]. Sonner, […]. 105, (2007): 393; […]. Fukushima, & […]. 44, (2017): 577; […], Pharmacology 103, (2019): 10). Heteromeric GABAA receptors were expressed in oocytes by blind intranuclear injection of 1 ng DNA encoding the human al (GABRA1) and rat B2 (GABRB2) subunits in a 1:1 ratio. NMDA receptors were expressed by intracytoplasmic injection of 5 ng RNA encoding rat NR1 (GRIN1) and rat NR2a (GRIN2A) subunits in a 1:1 ratio. Nax 1.2 channels were expressed by injection of 5 ng RNA encoding the human SCN2A gene. Two-electrode voltage clamp studies of GABAA receptors were carried out in a 0.25-mL linear perfusion chamber. Perfusates were delivered by using a syringe pump at 1.5 mL/min using gastight glass syringes and polytetrafluoroethylene tubing. […] King Precision Glass, Claremont, CA, USA) connected to separate […] (Axon Instruments HS2A; Molecular Devices, San Jose, CA, USA) through which voltage was clamped at -80 mV and current was passed via a computer-controlled amplifier (Axon Instruments GeneClamp 500B; Molecular Devices). Oocytes were perfused with frog Ringer's (FR) solution containing 115 mM NaCl, 2.5 mM KCl, 1.8 mM CaCl2), and 10 mM HEPES prepared from ACS-grade chemicals and 18.2 MΩ H2O, filtered and pH adjusted to 7.4. […] After 30 s, the perfusate was switched back to FR solution. This process was repeated until a stable baseline response was achieved. Next, FR containing either L-carvone (99%; Sigma-Aldrich, St. Louis, MO, USA) or methyl salicylate (>99%; Sigma-Aldrich) at the test concentration was used to perfuse the oocyte for 1.5 min, and then the oocyte was perfused with FR+GABA solution containing this same drug and concentration for 30 s. […] Uninjected oocytes served as negative controls. Only one drug and concentration were studied per oocyte. […] Percent change in current was calculated as follows: [formula] • where IB is the baseline pre-drug current peak and ID is the drug current peak. For each drug and ion channel, data were fit to a Hill equation using nonlinear regression with sequential quadratic programming and bootstrap estimates of parameter standard errors (SPSS, v. 27; IBM, Armonk, NY, USA). In the model, maximum drug inhibition (Imax) was constrained to not be less than -100%. Initial parameter estimates were seeded with values based on visual inspection of respective dose-response curves in order to facilitate model convergence.

Sprague Dawley rats [3] = assay: Pilot study, single IV bolus injection, righting reflex and tail clamp response; conditions: for time to return of righting reflex: methyl salicylate: the 2 surviving rats
Protocol: Solutions of 10% (v/v) L-carvone or methyl salicylate were prepared sterilely in 20% […]® (Fresenius Kabi, Lake Zurich, IL, USA). Lateral tail vein catheters were placed in twenty-one 69-day-old, male, Sprague Dawley rats weighing 291±17 (mean±SD) grams. Each rat received a single intravenous bolus injection of L-carvone solution (0.2 or 0.4 mL), methyl salicylate solution (0.1, 0.15, 0.2, or 0.4 mL), or a 1:1 mixture of the L-carvone and methyl salicylate solutions over 15 s. Because L-carvone density is 0.9673 g/cm^3 at 25° C., 0.2 mL and 0.4 mL of solution contained 19 mg and 39 mg of L-carvone, respectively (E. E. Royals & S. E. Horne, J. Am. Chem. Soc. 73, (1951): 5850).
Spontaneous motor activity and loss-of-righting reflex was assessed at 5- to 10-s intervals, and nociception response to an alligator clamp applied to the tail was tested if the righting reflex was absent. […] Animals were weighed 24 and 48 h after the study and then euthanized for gross pathology examination.

Sprague Dawley rats [4] = assay: Another experiment: IV doses of 10% (v/v) solutions in […]; format: in vivo, rat
Description: In another experiment, a 10% (v/v) solution of methyl salicylate in […]®, and a 10% (v/v) solution of L-carvone in […]® were each tested in Sprague Dawley rats that each weighed approximately 300 g.

[5] = target: T2, human benzodiazepine-sensitive α1β2γ2s GABAA receptors (Homo sapiens, UniProt P14867+P18507+P47870); conditions: concentrations up to 0.12 mM; cited from earlier work
T2 construct: host or cells: frog oocytes
T2 sequence (P14867 28-456): as the sequence (P14867 28-456) above
T2 sequence (P47870 26-474 isoform P47870-1 limits assumed): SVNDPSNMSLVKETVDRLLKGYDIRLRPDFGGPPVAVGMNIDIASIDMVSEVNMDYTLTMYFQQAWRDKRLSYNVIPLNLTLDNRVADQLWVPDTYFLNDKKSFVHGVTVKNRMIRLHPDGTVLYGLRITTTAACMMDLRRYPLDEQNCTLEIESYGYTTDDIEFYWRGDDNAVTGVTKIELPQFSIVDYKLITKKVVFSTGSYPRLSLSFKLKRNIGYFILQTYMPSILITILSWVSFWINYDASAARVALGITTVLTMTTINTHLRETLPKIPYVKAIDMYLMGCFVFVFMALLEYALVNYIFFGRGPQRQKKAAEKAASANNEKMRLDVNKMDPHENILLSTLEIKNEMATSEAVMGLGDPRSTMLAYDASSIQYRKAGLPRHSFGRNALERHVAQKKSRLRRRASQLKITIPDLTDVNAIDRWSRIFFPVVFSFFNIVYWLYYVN
T2 sequence (P18507 40-467 isoform P18507-1 limits assumed): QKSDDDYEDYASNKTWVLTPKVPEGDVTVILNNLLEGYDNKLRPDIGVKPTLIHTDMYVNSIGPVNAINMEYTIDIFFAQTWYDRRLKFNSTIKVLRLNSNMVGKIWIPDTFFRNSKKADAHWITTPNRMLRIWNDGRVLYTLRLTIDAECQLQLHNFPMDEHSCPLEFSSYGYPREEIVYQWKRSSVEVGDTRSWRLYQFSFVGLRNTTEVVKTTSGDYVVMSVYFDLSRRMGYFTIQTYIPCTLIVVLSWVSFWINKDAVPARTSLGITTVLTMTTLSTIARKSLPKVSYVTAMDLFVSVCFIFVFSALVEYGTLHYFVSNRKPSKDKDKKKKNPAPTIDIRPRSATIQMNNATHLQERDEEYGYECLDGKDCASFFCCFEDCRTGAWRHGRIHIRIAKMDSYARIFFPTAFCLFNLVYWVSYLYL

[6] = tested on: sciatic nerve axon of frogs; conditions: frog sciatic nerve axon; read-out: IC50, decrease of compound action potential amplitude; cited from earlier work
rat sciatic nerves = conditions: read-out: IC50, decrease of compound action potentials; cited from earlier work
[7] = tested on: GABAA receptors, rat cerebral cortex cell cultures; conditions: 0.75 mM; cited from earlier work
[8] = at the mean plasma concentration during IV infusion anesthesia in rats
[9] = 0.2 mL IV bolus of 10% emulsion
[10] = Sprague Dawley, rat, in vivo, iv

For `COC(=O)c1ccccc1O` [methyl salicylate], which “bath concentration causing anesthesia” value (carp) is on record?
Its value is 0.8 to 2.3 mM.

And the “solubility in water relative to cutoff values for modulation of the 3 ion channels” value [1]?
The value was “more soluble in water than the cutoff values”.

And the “potentiation of GABAA receptors” value [2, 8]?
Its value is 30%.

What about the “effect on GABAA receptor currents” value [2] of the same compound?
Its value is “potently inhibited; also recorded: biphasic effect”.

What about the IC50 ([2]; high-affinity inhibitory site, 50 μM GABA, oocytes clamped at −80 mV, read-out: IC50, inhibition of GABAA receptor currents) of the same compound?
Its IC50 is 0.11 µM and ~0.1 µM.

What about the “Hill coefficient, GABAA receptor potentiation site” value ([2]; low-affinity binding) of the same compound?
Its value is “less than 1”.

And the “concentration for second positive allosteric GABAA site relative to high-affinity site” value ([2]; potentiation site vs inhibitory site)?
Its value is “about 50,000 times”.

And the EC50 ([2]; second site, high concentrations, read-out: median effective concentration, potentiation of GABAA currents)?
Its EC50 is 5300 µM.

And the “time to loss-of-righting reflex” value (Sprague Dawley rats [3]; 0.1 mL IV bolus of 10% emulsion in 20% INTRALIPID, single rat)?
Its value is 33 s.

What about the “general anesthesia (immobility in response to a tail clamp)” value (Sprague Dawley rats [3]; 0.1 mL IV bolus, single rat) of the same compound?
The value was “never resulted in general anesthesia”.

And the “time to return-of-righting reflex” value (Sprague Dawley rats [3]; 0.1 mL IV bolus, single rat)?
The value was 60 s.

What about the time to anesthesia (Sprague Dawley rats [3]; 0.15 mL IV bolus, N=4 rats) of the same compound?
Its time to anesthesia is 39 ± 2 s.

What about the time to loss-of-righting (Sprague Dawley rats [3]; 0.15 mL IV bolus, N=4 rats) of the same compound?
The time to loss-of-righting was 35 ± 5 s.

What about the “time to normal ambulation without ataxia” value (Sprague Dawley rats [3]; 0.15 mL IV bolus, N=4 rats) of the same compound?
Its value is 76 ± 10 s.

What about the “time to return from anesthesia (tail clamp response) after drug injection” value (Sprague Dawley rats [3]; 0.15 mL IV bolus, N=4 rats) of the same compound?
Its value is 64 ± 8 s.

And the “time to return of righting after drug injection” value (Sprague Dawley rats [3]; 0.15 mL IV bolus, N=4 rats)?
Its value is 53 ± 3 s.

And the “time to walking and active / ambulating normally” value (Sprague Dawley rats [3]; 0.2 mL IV bolus)?
The value was 110 s.

What about the “time to loss of tail clamp response (general anesthesia)” value (Sprague Dawley rats [3]; [9]) of the same compound?
The value was 37 ± 13 s.

And the “time to loss-of-righting reflex” value (Sprague Dawley rats [3]; [9])?
The value was 35 ± 10 s.

And the “time to return of righting reflex” value (Sprague Dawley rats [3]; 0.2 mL IV bolus)?
The value was 58 s.

What about the “time to regain tail clamp response” value (Sprague Dawley rats [3]; 0.2 mL IV bolus, the 2 surviving rats) of the same compound?
The value was 48 s.

What about the time to unconsciousness (Sprague Dawley rats [3]; 0.4 mL IV bolus) of the same compound?
The time to unconsciousness was 20 ± 5 s.

What about the “body weight for the next two days, relative to baseline values” (Sprague Dawley rats [3]; rat, in vivo) of the same compound?
Its value is 97-98%.

And the “gross pathology / necropsy findings” value (Sprague Dawley rats [3]; rat, in vivo)?
Its value is “no gross abnormalities”.

What about the “duration of loss of righting reflex” value (Sprague Dawley rats [4]; 0.2 mL IV) of the same compound?
The value was 30 s.

What about the “time to ambulatory after return of righting” value (Sprague Dawley rats [4]; 0.2 mL IV) of the same compound?
The value was 40 s.

And the “time to loss of righting reflex” value (Sprague Dawley rats [4]; 0.2 mL IV)?
The value was no more than 25 s.

What about the “time to loss of righting” value (Sprague Dawley rats [4]; 0.4 mL IV) of the same compound?
Its value is 15 s.

And the “time from apnea to confirmed cardiac arrest” value (Sprague Dawley rats [4]; [10])?
The value was “less than 1 minutes”.

What about the “time from loss of righting to apnea” value (Sprague Dawley rats [4]; [10]) of the same compound?
Its value is 5 s.

And the “gross necropsy performed 2 days later” value (Sprague Dawley rats [4]; rat, in vivo, iv)?
The value was “No evidence of hepatic, renal, cardiac, or pulmonary injury”.

Which “bath concentration causing anesthesia” value (carp) does the source give for L-carvone here?
The value was 1.9 to 4.5 mM.

And the “response of α1β2γ2s GABAA receptors” value [5]?
The value was “minimal response”.

What about the IC50 [6] of the same compound?
The IC50 was 1400 µM.

And the IC50 (rat sciatic nerves)?
Its IC50 is 8700 µM.

And the “reduction of GABAA-induced benzodiazepine binding” value [7]?
The value was 36%.

What about the “GABAA receptor current at highest concentration” value ([2]; 10 mM drug) of the same compound?
The value was “near or complete loss of channel currents; also recorded: almost entirely inhibited”.

And the “inhibition of GABAA receptors” value [2, 8]?
The value was 96%.

What about the “Hill coefficient, GABAA receptor inhibition” value ([2]; dose-response model) of the same compound?
The value was roughly 1.

And the “effect on GABAA receptor currents” value [2]?
The value was “dose-dependent inhibition”.

And the “body weight over the next 2 days, deviation from baseline” value (Sprague Dawley rats [3]; 0.2 mL IV bolus)?
Its value is 1.9±1.4%.

What about the “time to walking and active / ambulating normally” value (Sprague Dawley rats [3]; 0.2 mL IV bolus) of the same compound?
Its value is 60 ± 13 s.

And the “time to loss of tail clamp response (general anesthesia)” value (Sprague Dawley rats [3]; [9])?
Its value is 54 ± 11 s.

And the “time to loss-of-righting reflex” value (Sprague Dawley rats [3]; [9])?
The value was 40 ± 6 s.

And the “behavioural sign before loss-of-righting reflex” value (Sprague Dawley rats [3]; 0.2 mL IV bolus, N=4 rats)?
The value was “transient excitement”.

What about the “duration of transiently decreased respiratory rate” value (Sprague Dawley rats [3]; 0.2 mL IV bolus, N=4 rats) of the same compound?
Its value is “approximately 10 s”.

What about the “duration of whole-body muscle hypertonia” value (Sprague Dawley rats [3]; 0.2 mL IV bolus, half of the rats) of the same compound?
The value was 15 s.

What about the “time to return of righting reflex” value (Sprague Dawley rats [3]; 0.2 mL IV bolus) of the same compound?
Its value is 58 ± 14 s.

And the “time to cardiopulmonary arrest” value (Sprague Dawley rats [3]; 0.4 mL IV bolus)?
Its value is 35 ± 18 s.

What about the time to unconsciousness (Sprague Dawley rats [3]; 0.4 mL IV bolus) of the same compound?
The time to unconsciousness was 20 ± 4 s.

And the “gross pathology / necropsy findings” value (Sprague Dawley rats [3]; recovered animals (sublethal doses), 48 h after drug administration)?
The value was “no gross pathology findings”.

And the “duration of general anesthesia effects” value (Sprague Dawley rats [4]; 0.2 mL IV)?
The value was 1 min.

And the “gross necropsy performed 2 days later” value (Sprague Dawley rats [4]; 0.2 mL IV)?
Its value is “No evidence of hepatic, renal, cardiac, or pulmonary injury”.

What about the “time after administration to awake and ambulatory” value (Sprague Dawley rats [4]; 0.2 mL IV) of the same compound?
Its value is no more than 3 min.

What about the “time to general anesthesia (loss of righting reflex and tail clamp response)” value (Sprague Dawley rats [4]; 0.2 mL IV, approx. 300 g rats) of the same compound?
The value was no more than 30 s.

And the “apnea after onset of anesthesia” value (Sprague Dawley rats [4]; 0.4 mL IV)?
The value was “almost immediately”.

What about the “time from apnea to confirmed cardiac arrest” value (Sprague Dawley rats [4]; 0.4 mL IV) of the same compound?
Its value is 2 min.

And the time to anesthesia (Sprague Dawley rats [4]; 0.4 mL IV)?
The time to anesthesia was no more than 45 s.
